Laboratory results: patent EP0831877B1, “METABOLIC EFFECTS OF CERTAIN GLUTATHIONE ANALOGS” (TELIK, INC., priority 1995, dated 1996)
Several values for one entry are separate records, joined by “and”; a condition that tells them apart may be missing. Identical values can stand only once. Like-named read-outs stand apart in the source and are kept apart here. Marks after values point to notes of the source that are not given here.

How the values were obtained:
[1] = tested on: normal BDF1 mouse bone marrow erythroid (BFU-E) progenitor cells; assay: colony formation, mouse bone marrow BFU-E; type: cell-based
Experimental: (§1) The effects are dose-dependent, usually in the range of 1.0 to 10.0 µM, and in most cases for cells stimulated by GM-CSF, G-CSF, M-CSF, Flt3/Flk-2 and Steel factor (stem cell factor/c-kit ligand). Of particular interest was the finding that TER199 enhances colony formation stimulated by combinations of cytokines. Additionally, the enhancing effect is more pronounced in human than in murine bone marrow.

[2] = tested on: HT4-1, a subclone of HT-29; assay: standard clonogenic assay, potentiation of drug toxicity, HT4-1
Experimental: Four chemotherapeutic drugs, chlorambucil, adriamycin, mitomycin C and doxorubicin were used as the toxic agents. In these assays, the cells were seeded at 300 cells/well in 2 ml of medium in 6-well plates in the presence of the compounds used in the invention as the diethyl esters. […] After incubation for 1-2 hours to permit cells to attach, varying doses of the chemotherapeutic agents were added. At least three replicate wells were plated for each test condition and the plates were incubated for two weeks. […] IC50 values were determined for the chemotherapeutic agent in the presence or absence of the compound used in the invention and dose modification factors were calculated by dividing the IC50 value of drug without the compound by the IC50 value of the drug with the compound.

[3] = tested on: normal BDF1 mouse bone marrow multipotential (CFU-GEMM) progenitor cells; assay: colony formation, mouse bone marrow CFU-GEMM; type: cell-based; details: EPO + 50 ng/ml SLF
Experimental: as §1

[4] = tested on: SKOV-3 an ovarian carcinoma; assay: standard clonogenic assay, potentiation of drug toxicity, SKOV-3; type: cell-based; details: test dose not given
Experimental: (§2) ; SKOV-3 an ovarian carcinoma, and VLB, a vinblastine-resistant variant of SKOV-3. Four chemotherapeutic drugs, chlorambucil, adriamycin, mitomycin C and doxorubicin were used as the toxic agents. In these assays, the cells were seeded at 300 cells/well in 2 ml of medium in 6-well plates in the presence of the compounds used in the invention as the diethyl esters. […]. After incubation for 1-2 hours to permit cells to attach, varying doses of the chemotherapeutic agents were added. At least three replicate wells were plated for each test condition and the plates were incubated for two weeks. Colonies were fixed in 95% ethanol and stained with crystal violet for colony counting. IC50 values were determined for the chemotherapeutic agent in the presence or absence of the compound used in the invention and dose modification factors were calculated by dividing the IC50 value of drug without the compound by the IC50 value of the drug with the compound.

[5] = tested on: CD34^+++ cells from human cord blood or bone marrow; assay: CD34+++ cell differentiation in the presence of cytokines; type: cell-based; details: 0.1 µM-10 µM TER199, erythropoietin 1 unit/ml, IL-3 100 unit/ml
bone marrow GM-CFU [6] = assay: carboplatin-induced GM-CFU suppression in mice; type: in vivo; details: TER199 120mg/kg, i.p., carboplatin 90 mg/kg
Experimental: (§3) Bone marrows were harvested 24 hours after administration of the second drug.

[7] = tested on: VLB, a vinblastine-resistant variant of SKOV-3; assay: standard clonogenic assay, potentiation of drug toxicity, VLB; type: cell-based
Experimental: as §2

bone marrow GM-CFU [8] = assay: cyclophosphamide-induced GM-CFU suppression in mice; type: in vivo
[9] = in vitro half-life in human blood; type: in vitro ADME
interleukin-1 (IL-1) = assay: stimulation of cytokine production in bone marrow stromal cell cultures; type: cell-based, human; details: 100µM TER199 for one hour
Experimental: Human stromal cell cultures were established from freshly obtained human bone marrow as described by East, C.J. et al., Blood 5:1172 (1992). […] IL-1 levels were more than twice those of controls at both 24 and 48 hour time points.

peripheral blood cells = assay: peripheral blood response to 5-FU with oral TER199 in mice; type: in vivo; details: 150 mg/kg 5-FU IP, 24 hours later oral 150 mg/kg TER199, versus 5-FU alone
Experimental: The mice were bled through the retroorbital plexus and the blood samples were analyzed for changes in blood counts.

bone marrow GM-CFU [10] = tested on: bone marrow GM-CFU
Experimental: Bone marrows were harvested 24 hours after cisplatin administration.
as §3

HT4-1 tumors = assay: potentiation of melphalan toxicity in vivo, implanted HT4-1 tumors; parameters: species or system Male scid mice; details: group 5: 5 mg/kg melphalan + 60 mg/kg TER199, seven days; when control tumors reached 1500 mm^3
Experimental: Male scid mice were subcutaneously implanted with HT4-1 tumors from donor mice. HT4-1 is a subclone of HT-29, a human colon cancer. When tumors reached approximately 100 mm^3, the mice were randomized into six treatment groups and treated for seven days as follows: • 1. 5 mg/kg melphalan; • 2. 10 mg/kg ethacrynic acid; • 3. […] 5 mg/kg melphalan + 10 mg/kg ethacrynic acid; • 5.
The mice were monitored for weight changes and tumor volumes were determined by measurement with calipers. The tumor growth was monitored until the average tumor size reached 1500 mm^3 for all groups except melphalan with ethacrynic acid.
The results were computed in terms of the tumor volume in the drug treated mice as a percentage of control tumor volume (i.e., in the group administered vehicle alone). In group 1, administered melphalan alone, the tumors were approximately 75% of the volume of controls. […] For group 4 administered a combination of melphalan and ethacrynic acid, the volumes were approximately 35% of control. […] (The volume measurements were taken at the time control tumors reached 1500 mm^3.)

[11] = HT4-1, TER199 at 25 µM, TER183 dose not given
[12] = TER199 150 mg/kg p.o. 24 hours after cisplatin 20 mg/kg i.p.

CCOC(=O)[C@@H](N)CCC(=O)N[C@@H](CSCc1ccccc1)C(=O)N[C@@H](C(=O)OCC)c1ccccc1 [TER199, γE ethyl ester-C(Bz)-R-(-)-ϕG ethyl ester]
% change from control ([1]; EPO 1 U/ml, TER199 0.1 µM): 0% | Colony number ([1]; EPO 1 U/ml, TER199 0.1 µM): 2±1 and 4±1 | Colony number ([1]; EPO 1 U/ml, TER199 1.0 µM): 2±1 and 3±1 | % change from control ([1]; EPO 1 U/ml, TER199 10 µM): 0% | Colony number ([1]; EPO 1 U/ml, TER199 10 µM): 2±1 and 4±1 | Colony number ([1]; EPO + 50 ng/ml SLF, TER199 0.1 µM): 8±1 and 9±1 | Colony number ([1]; EPO + 50 ng/ml SLF, TER199 1.0 µM): 8±1 and 9±1 | Colony number ([1]; EPO + 50 ng/ml SLF, TER199 10 µM): 8±1 and 9±1 | survival of tumor cells treated with varying dosages of chlorambucil (Figure 1a) ([2]; 25 µM compound added to chlorambucil): survival rate is markedly diminished | DMF for Doxorubicin ([2]; HT4-1, TER199 at 25 µM): 1.20 | DMF for Adriamycin [2, 11]: 1.2 | DMF for Chlorambucil [2, 11]: 2.39 | DMF for Mitomycin C [2, 11]: 1.03 | survival of HT4-1 cells in the presence of the compound alone (Figure 1b) ([2]; HT4-1 cells): clearly toxic | % change from control ([3]; TER199 0.1 µM): 0% | Colony number ([3]; TER199 0.1 µM): 2±1 | % change from control ([3]; TER199 10 µM): 0% | Colony number ([3]; TER199 10 µM): 2±1 | DMF for Adriamycin [4]: 1.14 | DMF for Chlorambucil [4]: 1.24 | DMF for Doxorubicin [4]: 1.14 | BFU-E (Figure 16) [5]: modest positive effects | CFU-GEMM colony formation (Figure 16) ([5]; steel factor 50 ng/ml): modest positive effects | carboplatin-induced GM-CFU suppression (Figure 12, panel A) (bone marrow GM-CFU [6]): reduces carboplatin-induced GM-CFU suppression | DMF for Mitomycin C ([7]; 5 µM TER199): 0.82 (5 µM TER199)^c | DMF for Doxorubicin ([7]; TER199 at 25 µM): 2.50 | DMF for Adriamycin ([7]; TER199 at 25 µM, TER183 dose not given): 2.50 | cyclophosphamide-induced GM-CFU suppression (Figure 13, panel A) (bone marrow GM-CFU [8]; TER199 120 mg/kg, i.p. 24 hours after cyclophosphamide 200 mg/kg, i.p.): reduces GM-CFU suppression | cyclophosphamide-induced GM-CFU suppression (Figure 13, panel B) (bone marrow GM-CFU [8]; TER199 150 mg/kg, p.o.): similarly effective | half-life [9]: ~1.5 h | half-life, comparison of the three compounds [9]: approximately the same | IL-1 concentration (interleukin-1 (IL-1); 24 Hours): 323 pg/mL | IL-1 concentration (% control) (interleukin-1 (IL-1); 24 Hours): 283 % control | IL-1 concentration (interleukin-1 (IL-1); 48 Hours): 245 pg/mL | IL-1 concentration (% control) (interleukin-1 (IL-1); 48 Hours): 253 % control | lymphocytes (Figure 15c) (peripheral blood cells): no differences were found | monocytes (Figure 15d) (peripheral blood cells): statistically significant difference only on day 9 | neutrophils (Figure 15b) (peripheral blood cells): statistically significant difference was obtained only on day 9 | total white cell counts (Figure 15a) (peripheral blood cells): essentially no significant difference | GM-CFUs per femur (bone marrow GM-CFU [10]; TER199 60 mg/kg i.p. 24 hours before cisplatin 15 mg/kg i.p.): 62 % of control | GM-CFU (bone marrow GM-CFU [10]; [12]): 40% | increase in GM-CFU versus cisplatin alone (bone marrow GM-CFU [10]; [12]): 2.5 fold | GM-CFU (bone marrow GM-CFU [10]; TER199 150 mg/kg p.o. 24 hours before cisplatin 20 mg/kg i.p.): 52 % of control | tumor volume as a percentage of control tumor volume (HT4-1 tumors): approximately 55%
